In a compilation of properties of binary mixtures (doi:10.1021/acs.jced.0c00426):

Assay: xn = mol fraction of the nth substance listed
Details: 101.3 kPa

CNc1ccccc1 + CCCCCCCCn1cc[n+](C)c1.F[B-](F)(F)F
x2 = 0
Details	speed of sound [m/s]
298.15 K	1565
303.15 K	1546
308.15 K	1527
313.15 K	1508
318.15 K	1489
323.15 K	1471

CNc1ccccc1 + CCCCCC[n+]1ccn(C)c1.F[B-](F)(F)F
speed of sound [m/s]
Details	x2 = 0	x2 = 0.1058	x2 = 0.2201	x2 = 0.3079	x2 = 0.395	x2 = 0.501	x2 = 0.6034	x2 = 0.7024	x2 = 0.804	x2 = 0.8984
293.15 K	1584	–	1589	1580	1569	1557	–	1538	1531	1526
298.15 K	1565	1578	1577	1569	–	1549	1539	1532	1526	1523
303.15 K	1546	–	1560	1554	1545	1535	–	1519	1513	1510
308.15 K	–	1545	1544	–	–	–	1512	1505	1501	1497
313.15 K	1508	1527	1528	1523	1516	1507	1499	1493	1488	–
318.15 K	1489	–	1511	1507	1501	–	1486	1480	1476	1472
323.15 K	–	1490	1495	1492	1486	1479	1473	1467	1464	1460

CNc1ccccc1 + CCCC[n+]1ccn(C)c1.F[B-](F)(F)F
speed of sound [m/s]
Details	x2 = 0	x2 = 0.0973	x2 = 0.184	x2 = 0.2982	x2 = 0.3909	x2 = 0.5025	x2 = 0.5928	x2 = 0.7005	x2 = 0.7963	x2 = 0.901
293.15 K	1584	1598	1602	–	–	1594	–	1586	–	1580
298.15 K	–	–	1587	1590	1586	1580	1577	1573	1571	1569
303.15 K	1546	1564	1572	1575	1572	–	–	–	–	1558
308.15 K	1527	–	1555	1560	–	1554	–	1550	–	1547
313.15 K	1508	1532	1540	1544	1544	1543	1541	1539	–	1536
318.15 K	–	1515	1524	1529	1530	–	1528	1527	1526	1525
323.15 K	1471	1498	1508	1514	–	1516	1515	1516	1515	1516
